In patent US20040106681A1, “Dosage escalation and divided daily dose of anti-depressants to treat neurological disorders” (priority 2002, published 2004):
Counter-ions that a name gives are not always drawn.

Key:
[1] = pretreatment; repeatedly stressed rats; cited from earlier work
[2] = Example 2 12-week randomized, double-blind placebo-controlled dose escalation monotherapy trial in FMS; assay type: in vivo, human; settings: for Intolerance (dose escalation failures, number of patients): 36 total patients
Protocol: After an initial period when patients were washed off pain medication, centrally acting stimulants, antidepressants and sedative-hypnotics, a two-week baseline period was begun. […] All patients were escalated over a 4-week period in weekly steps from 25 mg daily, to 50, 100, and finally 200 mg daily, or until dose-limiting toxicity (DLT) was evident. The presence of DLT was evaluated by the study center each week prior to authorizing the patient to step up to the next higher dosage. In the event that DLT was evident, the patient was stabilized at the previously well-tolerated dosage, and remained on this dose for eight weeks at stable dose therapy. Patients who successfully reached the 200 mg daily dose were also then treated for an additional 8 weeks at that dose.
At any give dose level, milnacipran QD patients would receive the full dose of milnacipran in the morning and receive placebo at night. Milnacipran BID patients would receive the same total amount in a split dose given morning and evening. During the study, patents were asked to carry an electronic diary and record pain, fatigue, sleep, and functional information. The custom designed diary captured spontaneous pain data in several ways, including
(1) random daily prompts (the device notified the patient to record their current level of pain 4-5 times per day);
(2) a morning daily prompt querying about the previous 24-hours' pain;
(3) a Friday night weekly report asking about the patient's average pain for the past week.
The electronic assessments were supplemented with traditional pain, mood, and quality of life inventories during clinic visits. The diaries implemented an electronic version of the Gracely anchored logarithmic pain scale. This scale asks patients to choose between “extremely intense,” “very intense,” “intense,” “strong,” “slightly intense,” “barely strong,” “moderate,” “mild,” “very mild,” “weak,” “very weak,” “faint,” and “no pain” sensation to describe their pain.
During the 4th, 8th, and 12th week of treatment, patients visited the clinic, where a number of standard outcome measures including the SF-36, the McGill pain questionnaire, the Beck, the STPI, the fibromyalgia impact questionnaire, and several pain measures were administered. Safety information was also collected at these clinic visits.
The primary endpoint was defined as the change in pain score from baseline to endpoint based on pain scores collected on the patient electronic diary (PED). Endpoint was defined as week twelve for assessments with a single value (such as clinic measures) or the average of scores at weeks 11 and 12 for diary-based outcomes. “Responders” were defined as those patients an improvement in pain score of at least 30%.

[3] = swim stress test, hot plate response latency (thermal nociception threshold); assay type: in vivo, Sprague-Dawley rats
Protocol: (§1) The treatment groups of rats were the following: (1) stressed—forced swimming in 20 cm of water; (2) sham—swimming in 2-3 cm of water; (3) naive—left undisturbed in cage.
(§2) The rats were tested for thermal nociception threshold by hot plate response latency (in seconds). The rats were tested for muscle hyperalgesia by measuring grip strength (in kg) by algometer.
(§3) Data on hot plate response latency and grip strength was acquired on days 7 and 11.

[4] = Example 1 gradual dose escalation study in fibromyalgia; assay type: in vivo, human; settings: out of approximately 70 treated; weekly escalation 25, 50, 100, 200 mg daily
Source text: This study was undertaken to characterize the efficacy of milnacipran in treatment of fibromyalgia syndrome (FMS). A secondary objective was to evaluate the relationship between daily dose administered, frequency of dosing, and efficacy in treatment of FMS. […] In this study, daily dosages were gradually escalated.
Subjects who met the 1990 ACR criteria for fibromyalgia syndrome were eligible for enrollment. Patients recorded baseline symptoms for the first two weeks after washing off anti-depressants, hypnotics and certain other drugs that potentially could interfere with efficacy measurements. […] If the patient tolerated this dosage, they were stepped up to a 50 mg daily dosage for week two, 100 mg for week three, and 200 mg for week four, or a matching placebo. If dose-limiting toxicities were encountered during any given week, the patient was stepped down to the previous week's dosage and maintained at that dosage for the remainder of the study. Subjects continued to take their maximum tolerated dose (up to 200 mg) for an additional 8 weeks. Patients may receive a total of 12 weeks of medication. Dose-limited toxicity is defined as the occurrence of a drug-related grade 3-4 adverse event.
Efficacy was measured using FMS status assessments prior to receiving the first dose and during monthly clinic visits. […]

[5] = swim stress test, grip strength (muscle hyperalgesia); assay type: in vivo, Sprague-Dawley rats
Protocol: as §1, §2, §3

[6] = pretreatment, 10 or 30 mg/kg/day IP QD days 1-11, swim stress days 8-10
[7] = treatment after swim stress, drug days 5-10, swim stress days 2-4

Structure (SMILES) | development of cutaneous hyperalgesia [1] | patient global pain score, mean value ([2]; 1-7 scale (1 very much improved, 4 unchanged, 7 very much worse), endpoint, 38 MIL patients, QD and BID pooled) | % Dose Intolerance ([2]; BID dosing) [%] | Intolerance (dose escalation failures, number of patients) ([2]; BID dosing) | difference in Beck scores at endpoint versus placebo ([2]; FMS patients meeting definition of MDE, pooled milnacipran groups, p=0.03) | daily sleep quality scores, improvement versus placebo ([2]; QD and BID, 12-week treatment) | % Dose Intolerance ([2]; QD dosing) [%] | Intolerance (dose escalation failures, number of patients) ([2]; QD dosing) | worsening of sleep quality ([2]; in vivo) | patient electronic diary (PED) pain scores of responders ([2]; milnacipran BID, weeks 2-6, dose escalation) | 24-hour daily pain reported scores, BID versus QD ([2]; throughout 12-week treatment) | swim stress-induced reductions in hot plate latency [3, 6] | swim stress-induced reductions in hot plate response latency [3, 7] | patients who failed to tolerate 200 mg/day [4] | stress-induced reduction in grip strength [5, 6] | reduction in grip strength caused by repeated forced swim stress [5, 7]
CNCCC(Oc1ccc(C(F)(F)F)cc1)c1ccccc1.Cl (racemic) [fluoxetine, (±)-N-methyl-3-phenyl-3-[(α,α,α-trifluoro-p-tolyl)oxy]propylamine hydrochloride] | prevent the development of cutaneous hyperalgesia |  |  |  |  |  |  |  |  |  |  |  |  |  |  | 
CCN(CC)C(=O)[C@@]1(c2ccccc2)C[C@H]1CN (racemic) [milnacipran, (±)-cis-2-(aminomethyl)-N,N-diethyl-1-phenylcyclopropanecarboxamide hydrochloride] |  | 2.3 | 6 | 2 | significant | No significant improvement | 19 | 7 | no worsening | improvement | BID dosing was more effective than QD dosing | not prevented | did not reverse | 9 | prevented | did reverse
CN(C)CCCN1c2ccccc2CCc2ccc(Cl)cc21 [clormipramine] | prevent the development of cutaneous hyperalgesia |  |  |  |  |  |  |  |  |  |  |  |  |  |  | 
